Legend:
[1] = xn = mol fraction of the nth substance listed; conditions: 100 kPa, Liquid, x1 = 1; for viscosity: Capillary tube (Ostwald / Ubbelohde) method; for mass density: Vibrating tube method
[2] = 101.33 kPa, Liquid; for mass density: Vibrating tube method; for viscosity: Capillary tube (Ostwald / Ubbelohde) method

CCCCCCCCn1cc[n+](C)c1.O=S(=O)([N-]S(=O)(=O)C(F)(F)F)C(F)(F)F + O=C1CCCO1
[1]
Conditions | mass density [kg/m3] | viscosity [mPa·s]
293.15 K | 1324.82 | 114.86
298.15 K | 1320.47 | 88.59
303.15 K | 1316.05 | 69.08
308.15 K | 1311.64 | 56.43
313.15 K | 1307.24 | 45.03
318.15 K | 1302.85 | 37.25
323.15 K | 1298.47 | 30.83

CCCCCCCCn1cc[n+](C)c1.O=S(=O)([N-]S(=O)(=O)C(F)(F)F)C(F)(F)F
[2]
Conditions | mass density [kg/m3] | viscosity [mPa·s]
273.15 K | 1340.42 | –
283.15 K | 1331.26 | 208.88
293.15 K | 1324.82 | 114.86
298.15 K | 1320.47 | 88.59
303.15 K | 1316.05 | 69.08
308.15 K | 1311.64 | 55.38
313.15 K | 1307.24 | 45.03
318.15 K | 1302.85 | 37.25
323.15 K | 1298.47 | 30.83

CCCCCC[n+]1ccn(C)c1.O=S(=O)([N-]S(=O)(=O)C(F)(F)F)C(F)(F)F
[2]
Conditions | mass density [kg/m3] | viscosity [mPa·s]
273.15 K | 1395.43 | 279.26
278.15 K | 1390.66 | –
283.15 K | 1386.02 | 148.8
288.15 K | 1381.44 | –
293.15 K | 1376.84 | 87.29
298.15 K | 1371.81 | 70.52
303.15 K | 1367.68 | 55.92
308.15 K | 1363.11 | 47.46
313.15 K | 1357.51 | 37.22
318.15 K | 1352.62 | 31.35
323.15 K | 1349.46 | 25.95

CCn1cc[n+](C)c1.O=S(=O)([N-]S(=O)(=O)C(F)(F)F)C(F)(F)F + O=C1CCCO1
[1]
Conditions | mass density [kg/m3] | viscosity [mPa·s]
293.15 K | 1523.44 | 37.8
298.15 K | 1518.3 | 31.79
303.15 K | 1513.11 | 26.84
308.15 K | 1507.9 | 22.9
313.15 K | 1502.68 | 19.75
318.15 K | 1497.48 | 17.05
323.15 K | 1492.24 | 15.02

CCCCCC[n+]1ccn(C)c1.O=S(=O)([N-]S(=O)(=O)C(F)(F)F)C(F)(F)F + O=C1CCCO1
[1]
Conditions | mass density [kg/m3] | viscosity [mPa·s]
293.15 K | 1376.84 | 87.29
298.15 K | 1371.81 | 70.52
303.15 K | 1367.68 | 55.92
308.15 K | 1363.11 | 47.46
313.15 K | 1357.51 | 37.22
318.15 K | 1352.62 | 31.35
323.15 K | 1349.46 | 25.95

CCn1cc[n+](C)c1.O=S(=O)([N-]S(=O)(=O)C(F)(F)F)C(F)(F)F
[2]
Conditions | mass density [kg/m3] | viscosity [mPa·s]
293.15 K | 1523.44 | 37.8
298.15 K | 1518.3 | 31.79
303.15 K | 1513.11 | 26.84
308.15 K | 1507.9 | 22.9
313.15 K | 1502.68 | 19.75
318.15 K | 1497.48 | 17.05
323.15 K | 1492.24 | 15.02

Reference: the NIST ThermoML archive (doi:10.1016/j.jct.2016.03.034)
